Experimental data published in patent publication US12202843B2, “Muscarinic receptor agonists” (Nxera Pharma UK Limited, priority 2014, dated 2025).

How the values were obtained:
[1] = target: T1, human muscarinic M1 receptor (Homo sapiens, UniProt P11229); experiment: Alphascreen Surefire phospho-ERK1/2 functional assay, M1; type: cell-based; conditions: for EC50: CHO cells stably expressing human M1, read-out: pEC50 M1 (converted); for % Emax cf. ACh, M1: CHO cells stably expressing human M1, relative to ACh; for Emax: CHO, read-out: % Emax cf. ACh, M1, CHO cells stably expressing human M1, relative to ACh
T1 sequence (P11229 1-460): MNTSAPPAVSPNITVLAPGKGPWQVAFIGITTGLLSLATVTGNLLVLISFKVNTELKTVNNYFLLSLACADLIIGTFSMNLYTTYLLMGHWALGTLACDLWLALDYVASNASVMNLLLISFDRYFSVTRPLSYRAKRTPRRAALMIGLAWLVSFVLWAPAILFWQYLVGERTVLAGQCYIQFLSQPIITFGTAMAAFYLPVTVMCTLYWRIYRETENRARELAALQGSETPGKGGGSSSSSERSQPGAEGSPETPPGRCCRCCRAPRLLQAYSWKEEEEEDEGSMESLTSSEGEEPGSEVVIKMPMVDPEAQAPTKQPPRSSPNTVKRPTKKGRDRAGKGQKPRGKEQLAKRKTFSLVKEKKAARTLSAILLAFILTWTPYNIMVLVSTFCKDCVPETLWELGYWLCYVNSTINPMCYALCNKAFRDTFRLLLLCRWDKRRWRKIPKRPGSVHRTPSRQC
Method: (§1) ERK1/2 phosphorylation is a downstream consequence of both Gq/11 and Gi/o protein coupled receptor activation, making it highly suitable for the assessment of M1, M3 (Gq/11 coupled) and M2, M4 receptors (Gi/o coupled), rather than using different assay formats for different receptor subtypes. CHO cells stably expressing the human muscarinic M1, M2, M3 or M4 receptor were plated (25K/well) onto 96-well tissue culture plates in MEM-alpha+10% dialysed FBS. Once adhered, cells were serum-starved overnight. Agonist stimulation was performed by the addition of 5 μL agonist to the cells for 5 min (37° C.). Media was removed and 50 μL of lysis buffer added. […] Plates were incubated for 2 h with gentle agitation in the dark and then read on a PHERAstar plate reader.
(§2) pEC50 and Emax figures were calculated from the resulting data for each receptor subtype.

[2] = target: T2, human muscarinic M4 receptor (Homo sapiens, UniProt P08173); experiment: Alphascreen Surefire phospho-ERK1/2 functional assay, M4; type: cell-based; conditions: for % Emax cf. ACh, M4: CHO cells stably expressing human M4, relative to ACh; for EC50: CHO cells stably expressing human M4, read-out: pEC50 M4 (converted); for Emax: CHO, read-out: % Emax cf. ACh, M4, CHO cells stably expressing human M4, relative to ACh
T2 construct: expressed in transfected cells
T2 sequence (P08173 1-479): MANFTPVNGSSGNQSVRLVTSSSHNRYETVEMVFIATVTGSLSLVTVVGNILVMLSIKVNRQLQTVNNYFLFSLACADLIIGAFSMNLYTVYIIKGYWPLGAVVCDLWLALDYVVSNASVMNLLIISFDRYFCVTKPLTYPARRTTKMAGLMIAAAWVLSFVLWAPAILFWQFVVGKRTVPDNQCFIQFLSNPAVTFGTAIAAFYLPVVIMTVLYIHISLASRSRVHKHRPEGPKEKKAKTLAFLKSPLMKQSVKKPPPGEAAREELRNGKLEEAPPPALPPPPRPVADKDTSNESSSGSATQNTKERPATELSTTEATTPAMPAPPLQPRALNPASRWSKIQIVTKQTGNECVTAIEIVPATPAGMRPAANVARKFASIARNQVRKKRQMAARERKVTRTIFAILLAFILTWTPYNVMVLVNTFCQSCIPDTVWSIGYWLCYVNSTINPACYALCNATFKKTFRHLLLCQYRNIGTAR
Method: as §1, §2

Compound | EC50 [1] | Emax [1] | EC50 [2] | Emax [2] | also measured
CCSC(=O)N1C2CCC1CC(N1CCC3(CC1)CNC(=O)C3)C2 (single isomer, unassigned) [Example 2-35 Isomer 2] | 0.794 µM |  |  |  | % Emax cf. ACh, M1 ([1]; listed as 2-35 Isomer 2): 50%; % Emax cf. ACh, M4 [2]: 10%
CCOC(=O)N1C2CCC1CC(N1CCC3(CC1)CC(=O)N(C(C)C)C3)C2 (single isomer, unassigned) [Example 2-26 Isomer 2] | 0.631 µM | 43% | 0.631 µM | 22% | 
CCOC(=O)N1C2CCC1CC(N1CCC3(CC1)CC(=O)N(CC1CC1)C3)C2 (single isomer, unassigned) [Example 2-28 Isomer 2] | 0.501 µM | 57% | 0.316 µM | 27% | 
CCOC(=O)N1CC2CCC1CC2N1CCC2(CC1)CNC(=O)O2 (single isomer, unassigned) [Example 3-2 Isomer 2, ethyl 5-(2-oxo-1-oxa-3,8-diazaspiro[4.5]dec-8-yl)-2-azabicyclo[2.2.2]octane-2-carboxylate] | 0.1 µM |  | 0.398 µM |  | % Emax cf. ACh, M1 [1]: 127%; % Emax cf. ACh, M4 [2]: 36%
CCOC(=O)N1C2CCC1CC(N1CCC3(CC1)CC(=O)N(CC(C)C)C3)C2 (single isomer, unassigned) [Example 2-27 Isomer 2] | 0.398 µM | 38% | > 20 µM | 14% | 
CCOC(=O)N1C2CCC1C(F)C(N1CCC3(CC1)CNC(=O)O3)C2 (single isomer, unassigned) [Example 2-19 Isomer 2] | 1 µM | 94% | 3.98 µM | 74% | 
COC(=O)N1C2CCC1CC(N1CCC3(CC1)CNC(=O)C3)C2 (single isomer, unassigned) [Example 2-1 Isomer 2] | 0.631 µM | 72% | 1.58 µM | 25% | 
O=C1CC2(CCN(C3CC4CCC(C3)N4C(=O)OCCF)CC2)CN1 (single isomer, unassigned) [Example 2-3 Isomer 1] | 0.398 µM |  | 2 µM |  | % Emax cf. ACh, M1 ([1]; listed as 2-3 Isomer 1): 85%; % Emax cf. ACh, M4 ([2]; listed as 2-3 Isomer 1): 47%
[2H]C([2H])([2H])COC(=O)N1C2CCC1CC(N1CCC3(CC1)CNC(=O)C3)C2 (single isomer, unassigned) [Example 2-31 Isomer 1] | 0.126 µM |  | 0.251 µM |  | % Emax cf. ACh, M1 ([1]; listed as 2-31 Isomer 1): 112%; % Emax cf. ACh, M4 ([2]; listed as 2-31 Isomer 1): 53%
CC(C)OC(=O)N1C2CCC1CC(N1CCC3(CC1)CNC(=O)C3)C2 (single isomer, unassigned) [Example 2-33 Isomer 2] | 0.398 µM |  | 0.316 µM |  | % Emax cf. ACh, M1 ([1]; listed as 2-33 Isomer 2): 62%; % Emax cf. ACh, M4 [2]: 25%
CCOC(=O)N1C2CCC1CC(N1CCCC3(CC1)CNC(=O)O3)C2 (single isomer, unassigned) [Example 9-2 Isomer 3, ethyl 3-(2-oxo-1-oxa-3,8-diazaspiro[4.6]undec-8-yl)-8-azabicyclo[3.2.1]octane-8-carboxylate] | 0.501 µM |  | 0.0794 µM |  | % Emax cf. ACh, M1 ([1]; listed as 9-2 Isomer 3): 113%; % Emax cf. ACh, M4 ([2]; listed as 9-2 Isomer 3): 81%
CCOC(=O)N1C2CCC1CC(N1CCCC3(CC1)CNC(=O)O3)C2 (single isomer, unassigned) [Example 9-2 Isomer 2, ethyl 3-(2-oxo-1-oxa-3,8-diazaspiro[4.6]undec-8-yl)-8-azabicyclo[3.2.1]octane-8-carboxylate] | > 20 µM |  | > 20 µM |  | % Emax cf. ACh, M1 ([1]; listed as 9-2 Isomer 2): 18%; % Emax cf. ACh, M4 ([2]; listed as 9-2 Isomer 2): 8%
CSC(=O)N1C2CCC1CC(N1CCC3(CC1)CNC(=O)C3)C2 (single isomer, unassigned) [Example 2-34 Isomer 1] | 0.501 µM | 50% | > 20 µM | 8% | 
CCOC(=O)N1CC2CCC1CC2N1CCC2(CC1)OC(=O)NC2CC (single isomer, unassigned) [Example 3-3 Isomer 2, ethyl 5-(4-ethyl-2-oxo-1-oxa-3,8-diazaspiro[4.5]dec-8-yl)-2-azabicyclo[2.2.2]octane-2-carboxylate] | 0.794 µM | 76% | 0.316 µM | 56% | 
CCOC(=O)N1C2CCC1CC(N1CCCC3(CC1)CNC(=O)O3)C2 (single isomer, unassigned) [Example 9-2 Isomer 1, ethyl 3-(2-oxo-1-oxa-3,8-diazaspiro[4.6]undec-8-yl)-8-azabicyclo[3.2.1]octane-8-carboxylate] | > 20 µM |  | > 20 µM |  | % Emax cf. ACh, M1 ([1]; listed as 9-2 Isomer 1): 23%; % Emax cf. ACh, M4 ([2]; listed as 9-2 Isomer 1): 13%
CCOC(=O)N1C2CCC1C(F)C(N1CCC3(CC1)CNC(=O)C3)C2 (single isomer, unassigned) [Example 2-11 Isomer 1] | 0.631 µM | 95% | 1 µM | 53% | 
CCOC(=O)N1C2CCC1CC(N1CCCC3(CC1)CNC(=O)O3)C2 (single isomer, unassigned) [Example 9-2 Isomer 4, ethyl 3-(2-oxo-1-oxa-3,8-diazaspiro[4.6]undec-8-yl)-8-azabicyclo[3.2.1]octane-8-carboxylate] | 0.01 µM |  | 0.00501 µM |  | % Emax cf. ACh, M1 ([1]; listed as 9-2 Isomer 4): 103%; % Emax cf. ACh, M4 ([2]; listed as 9-2 Isomer 4): 66%
CC(C)OC(=O)N1C2CCC1CC(N1CCC3(CC1)CNC(=O)C3)C2 (single isomer, unassigned) [Example 2-33 Isomer 1] | 0.0316 µM |  | 0.2 µM | 20% | % Emax cf. ACh, M1 ([1]; listed as 2-33 Isomer 1): 37%
CCOC(=O)N1C2CCCC1CC(N1CCC3(CC1)CNC(=O)O3)C2 (single isomer, unassigned) [Example 5-4 Isomer 1] | 0.398 µM | 76% | > 20 µM |  | % Emax cf. ACh, M4 ([2]; listed as 5-4 Isomer 1): 39%
CCCC(=O)N1C2CCC1CC(N1CCC3(CC1)CNC(=O)C3)C2 (single isomer, unassigned) [Example 2-6 Isomer 2] | 0.501 µM | 35% | 15.8 µM | 32% | 
CCOC(=O)N1CC2CCC(C1)C2N1CCC2(CC1)CNC(=O)C2 (single isomer, unassigned) [Example 4-1 Isomer 2] | 0.501 µM | 36% | > 20 µM | 3% | 
CCOC(=O)N1C2CCC1CC(N1CCC3(CC1)OC(=O)NC3CC)C2 (single isomer, unassigned) [Example 2-16 Isomer 2] | 0.631 µM |  | 0.2 µM |  | % Emax cf. ACh, M1 ([1]; listed as 2-16 Isomer 2): 68%; % Emax cf. ACh, M4 ([2]; listed as 2-16 Isomer 2): 51%
COC(=O)N1CC2CC(N3CCC4(CC3)CNC(=O)C4)CC1C2 (single isomer, unassigned) [Example 6-1 Isomer 1] | 2.51 µM |  | > 20 µM | 53% | % Emax cf. ACh, M1 ([1]; listed as 6-1 Isomer 1): 78%
CCOC(=O)N1C2CCC1CC(N1CCC3(CC1)OC(=O)NC3C)C2 (single isomer, unassigned) [Example 2-15 Isomer 1] | 0.1 µM | 101% | > 20 µM | 10% | 
